# From patent US9446051B2, “Neuroprotection and myelin repair using nestorone®” (The Population Council, Inc., priority 2009, dated 2016)
# Key:
# [1] = tested on: primary hippocampal neurons; experiment: Neuroprotection of primary hippocampal neurons against glutamate, LDH release; type: cell-based; conditions: for neuroprotective efficacy against 200 μM glutamate (LDH release) compared with progesterone: dose-response, FIGS. 7A-F
# Method: The effect of NES and other progestins on CNS plasticity and the neuroprotective efficacy against glutamate toxicity has also been evaluated. LDH was measured, as a well-accepted assay, to determine such effect after exposure of the cells to glutamate, and the neuronal viability was assessed under the action of various progestins.
# Comparisons of neuroprotection against neurodegenerative insults were carried out. Efficacy was determined in connection with the protection of primary hippocampal neurons against degeneration induced by excitoxic glutamate. Hippocampal neuronal cultures grown on […] culture plates for 7d in vitro were pretreated with vehicle alone or test compounds, followed by exposure to 200 μM glutamate as previously described (13). After glutamate exposure, cultures were washed with HEPES-buffered saline solution and replaced with fresh NBM containing the test compounds or combinations. Cultures were returned to the incubator and incubated for 24 hours prior to analysis of neuronal viability using colorimetric LDH release in the media. Dose-response analysis was conducted for each of the progestins tested, and the results are shown in FIGS. 7A-F. Neuroprotective efficiency was calculated as follows: NE=(Vsample−Vglutamate)/(Vsubcontrol−Vglutamate).
# [2] = tested on: neural progenitor cell (NPC); experiment: Neural progenitor cell proliferation, BrdU chemiluminescence ELISA; type: cell-based, rat; conditions: for proliferation of progenitor cells compared with progesterone: FIG. 3 and FIG. 4; for NPC proliferation (BrdU incorporation) compared with progesterone: at 24 hours, FIGS. 6A-D
# Method: In vitro studies were carried out to determine neural progenitor cell (NPC) regeneration in rats. Cell proliferation was determined by S phase incorporation of BrdU. After 4 to 6 hours starvation (medium without supplements), rNPCs were loaded with 10 μM BrdU in the presence or absence of bFGF and varying concentrations of P4 or test progestins in unsupplemented maintenance medium for 1d. The rNPCs were then processed as described previously (1, 14). After subtracting the value of the blank (without BrdU loading), data were analyzed using a one-way ANOVA, followed by a Neuman-Keuls post hoc test.
# [3] = tested on: primary hippocampal neuron cultures; conditions: cited from earlier work; for protection against glutamate toxicity: alone or in combination, 48 hours before glutamate insult
# Bax/Bcl-2 = experiment: In vivo apoptotic activity, Bax/Bcl-2 ratio by Western blot
# Excerpt: The effects of various progestins on apoptosis was studied using Western blot analysis to determine the expression level of Bax, an apoptosis mediator by […] to the mitochondria to release apoptotic factors such as cytochrome c and Bcl-2. The ratio of Bax to Bcl-2 was used as an indicator of in vivo apoptotic activity.
# [4] = tested on: hippocampus of Sprague-Dawley ovariectomized female rats; experiment: In vivo NPC proliferation and cell viability in ovariectomized rats (Western blot, FACS of BrdU+ cells); set-up: species or system rat; conditions: for PCNA expression at the protein level: FIG. 8A
# Method: The generalized ability of the above in vitro findings to the in vivo condition were investigated. Analyses of NPC proliferation in rats and cell viability were conducted in three-month-old Sprague-Dawley ovariectomized female rats with various of the progestins. […] In order to assess the total number of BrdU+ cells, the contralateral hippocampal hemisphere used for protein analysis was fixed and processed by FACS analysis. The total number of BrdU+ cells per each hippocampus was determined and normalized to that of vehicle control. […] In order to measure cell viability in terms of promotion of mitochondrial function and reduction in oxidative damage expression of the alpha subunit of ATP synthase-Complex V (CVα) of the mitochondrial oxidative phosphorylation pathway was assessed by Western blot analysis.
# [5] = tested on: hippocampi of ovariectomized female Sprague Dawley rats; type: in vivo; conditions: stated 'as noted above'
# Method: The impact of the combination of 17β-estradiol (E2) and various progestins on neurogenesis and cell viability […] was also carried out. Young adult ovariectomized female Sprague Dawley rates were thus divided into six groups and received injection of either E2 alone or E2 combined with one of the progestins. Hippocampi were isolated 24 hours later for Western blot analysis and flow cytometry to determine the impact of treatment on cell viability and neurogenesis respectively. The expression level of PCNA was assessed to determine the impact of the treatment compounds on entry into the cell cycle required for neurogenesis.
# [6] = tested on: androgenic, estrogenic and glucocorticoid responses; conditions: cited from earlier work
# [7] = tested on: organotypic neonatal rat or mouse cerebellar slice culture; experiment: Myelination in organotypic cerebellar slice culture, measured by myelin basic protein (MBP) immunoreactivity; type: cell-based
# Excerpt: In experiments conducted in organotypic neonatal rat or mouse cerebellar slice culture, progesterone accelerated axon myelination (13,14).
# PR^lacz mice with MCAO = experiment: Transient middle cerebral artery occlusion (MCAO), steroid treatment after reperfusion; type: in vivo, mouse
# Method: In experiments conducted using progesterone receptor (PR) deficient mice (PR^−/−) compared with PR^+/− and PR^+/+ mice and both progesterone and Nestorone® were administered after ischemia and reperfusion.
# In order to test the effect of steroid treatments after reperfusion, adult male PR^lacz mice were anesthetized and the middle cerebral artery (MCA) was occluded for one hour with an intraluminal filament. After ligature of the left common carotid artery, a nylon monofilament coated with thermo-melting glue was introduced through an arteriotomy performed on the external carotid artery and advanced into the internal carotid artery. Occlusion of the MCA was controlled by monitoring the cerebral blood flow within the MCA territory by laser Doppler flowmetry. The filament was withdrawn one hour after occlusion to allow reperfusion, and the common carotid artery ligature was also removed. The mice were randomly and blindly assigned to either progesterone, allopregnanolone or Nestorone®, or vehicle-treated (sesame oil; sigma). All of the steroids were initially dissolved in a small volume of ethanol and further diluted in sesame oil to obtain the desired final steroid concentrations. Injections were given interperitoneally (IP) at 1, 6, and 24 hours after MCA occlusion (MCAO) according to established neuroprotective protocols. Treated mice were killed at 48 hours after MCAO.
# Cerebral infarct volumes and areas were determined after triphenyltetrazolium chloride (TTC) staining of brain sections. The details of this procedure are set forth in “Progesterone Receptors: A Key For Neuroprotection In Experimental Stroke,” Endocrinology, August 2012, 153(8), pp. 1-11, which is incorporated herein by reference thereto in its entirety. […] In FIGS. 11, 12 and 13, after the administration of progesterone and Nestorone®, in neuronal density the infarct (FIG. 11) and the penumbra (FIG. 12) can clearly be shown. In FIG. 13 the decrease in […] in the penumbra after administration of progesterone and Nestorone® is also clearly shown.
# [8] = indicator of in vivo apoptotic activity
smiles,measurement,setting,value
C#C[C@]1(OC(C)=O)CC[C@H]2[C@@H]3CCC4=CC(=NO)CC[C@@H]4[C@H]3CC[C@@]21CC (mixture of isomers) [norgestimate],neuroprotective efficacy against 200 μM glutamate (LDH release) compared with progesterone,[1],less potent than progesterone
same,proliferation of progenitor cells compared with progesterone,[2],more proliferative than progesterone
same,NPC proliferation (BrdU incorporation) compared with progesterone,[2],more potent in cell proliferation than progesterone at all concentrations
CC(=O)[C@H]1CC[C@H]2[C@@H]3CCC4=CC(=O)CC[C@@H]4[C@H]3CC[C@]12C [19-norprogesterone],protection against glutamate toxicity,[3],protected against glutamate toxicity
"CC(=O)O[C@]1(C(C)=O)CC[C@H]2[C@@H]3C[C@H](C)C4=CC(=O)CC[C@]4(C)[C@H]3CC[C@@]21C [MPA, medroxyprogesterone acetate]",ratio of Bax/Bcl-2 expression,Bax/Bcl-2; in vivo,significantly increased
same,total number of BrdU+ cells per hippocampus,"[4]; FACS, normalized to vehicle control, FIG. 8B",no significant effect on cell proliferation
same,PCNA expression at the protein level,[4]; Western blot,no significant effect
same,expression of alpha subunit of ATP synthase-Complex V (CVα),"[4]; Western blot, FIG. 8C",no significant effect
same,cell proliferation,[5],increased cell proliferation
same,protection against glutamate toxicity,[3],failed to protect against glutamate toxicity
same,effect on estrogen-induced neuroprotection when coadministered,[3]; coadministered with 17β-E2,attenuated the estrogen-induced neuroprotection
same,androgenic response,[6],induce androgenic responses
same,glucocorticoid response,[6],induces both androgenic and glucocorticoid responses
same,neuroprotective efficacy against 200 μM glutamate (LDH release) compared with progesterone,[1],less potent than progesterone
same,proliferation of progenitor cells compared with progesterone,[2],antagonistic
same,NPC proliferation (BrdU incorporation) compared with progesterone,[2],significantly inhibited proliferation at multiple concentrations
"C[C@]12CC[C@@H]3c4ccc(O)cc4CC[C@H]3[C@@H]1CC[C@@H]2O [estradiol, 17β-estradiol]",protection against glutamate toxicity,[3],protected against glutamate toxicity
C#C[C@]1(O)CC[C@H]2[C@@H]3CCC4=CC(=O)CC[C@@H]4[C@H]3CC[C@@]21CC [levonorgestrel],ratio of Bax/Bcl-2 expression,Bax/Bcl-2; [8],significantly increased
same,PCNA expression at the protein level,[4]; Western blot,no significant effect
C#C[C@]1(OC(C)=O)CC[C@H]2[C@@H]3CCC4=CC(=O)CC[C@@H]4[C@H]3CC[C@@]21C [norethindrone acetate],proliferation of progenitor cells compared with progesterone,[2],antagonistic
same,NPC proliferation (BrdU incorporation) compared with progesterone,[2],minimal or no effect on proliferation
C#C[C@]1(O)CC[C@H]2[C@@H]3CCC4=CC(=O)CC[C@@H]4[C@H]3CC[C@@]21C [norethindrone],androgenic response,[6],exert androgenic and estrogenic responses
same,estrogenic response,[6],exert androgenic and estrogenic responses
same,neuroprotective efficacy against 200 μM glutamate (LDH release) compared with progesterone,[1],less potent than progesterone
C#C[C@]1(O)CC[C@H]2[C@@H]3CCC4=C(CCC(=O)C4)[C@H]3CC[C@@]21C [norethynodrel],androgenic response,[6],exert androgenic and estrogenic responses
same,estrogenic response,[6],exert androgenic and estrogenic responses
same,neuroprotective efficacy against 200 μM glutamate (LDH release) compared with progesterone,[1],more potent than progesterone at minimal effective concentrations
same,proliferation of progenitor cells compared with progesterone,[2],more proliferative than progesterone
same,"NPC proliferation (BrdU incorporation) compared with progesterone, high nanomolar ranges",[2]; high nanomolar ranges,significantly more efficacious than progesterone
same,"NPC proliferation (BrdU incorporation) compared with progesterone, low nanomolar range",[2]; low nanomolar range,comparable effects to progesterone
CC(=O)[C@H]1CC[C@H]2[C@@H]3CCC4=CC(=O)CC[C@]4(C)[C@H]3CC[C@]12C [progesterone],ratio of Bax/Bcl-2 expression,Bax/Bcl-2; [8],no effect
same,CDC2 protein expression,[4]; Western blot,significantly increased
same,protection against glutamate toxicity,[3],protected against glutamate toxicity
same,neuroprotective efficacy against glutamate toxicity (LDH),"[1]; FIG. 5, NES and PROG at 10−7M",exerted the higher efficacy
same,concentration of equal promyelinating activity,[7]; NES at 20 μm as active as PROG at 50 μm (FIG. 1),50 μm
same,myelination in cerebellar slices from PR knockout mice,[7]; PR knockout mice,did not increase myelination
same,myelination measured by myelin basic protein (MBP) immunoreactivity,[7]; cerebellar slice culture,promote dose-dependent myelination
same,efficient neuroprotective dose,PR^lacz mice with MCAO; after stroke,8 mg/kg
same,microglial density in the penumbra (neuroinflammatory responses),PR^lacz mice with MCAO; treatment after stroke,reduced microglial density
same,neuronal density in the infarct and in the penumbra,PR^lacz mice with MCAO; treatment after stroke,significantly increases the neuronal density
same,proliferation of progenitor cells compared with progesterone,[2],increases the proliferation
same,NPC proliferation (BrdU incorporation) compared with progesterone,[2],comparably efficacious at their EC100 concentrations
